# Measurements reported in doi:10.1101/2020.01.23.916502v1 (biorxiv, 2020).
# Columns and labels:
# Experiment in all cases: NanoBRET tracer displacement in live HEK293T cells
# Format in all cases: cell-based
# MAPK9 = MAPK9 (Homo sapiens, UniProt P45984)
# JAK1 = JAK1 (Homo sapiens, UniProt P23458)
# PIK3CA = PIK3CA (Homo sapiens, UniProt P42336)
# PNCK = PNCK (Homo sapiens, UniProt Q6P2M8)
# DDR1 = DDR1 (Homo sapiens, UniProt Q08345)
# Chain of DDR1 (Q08345 19-913): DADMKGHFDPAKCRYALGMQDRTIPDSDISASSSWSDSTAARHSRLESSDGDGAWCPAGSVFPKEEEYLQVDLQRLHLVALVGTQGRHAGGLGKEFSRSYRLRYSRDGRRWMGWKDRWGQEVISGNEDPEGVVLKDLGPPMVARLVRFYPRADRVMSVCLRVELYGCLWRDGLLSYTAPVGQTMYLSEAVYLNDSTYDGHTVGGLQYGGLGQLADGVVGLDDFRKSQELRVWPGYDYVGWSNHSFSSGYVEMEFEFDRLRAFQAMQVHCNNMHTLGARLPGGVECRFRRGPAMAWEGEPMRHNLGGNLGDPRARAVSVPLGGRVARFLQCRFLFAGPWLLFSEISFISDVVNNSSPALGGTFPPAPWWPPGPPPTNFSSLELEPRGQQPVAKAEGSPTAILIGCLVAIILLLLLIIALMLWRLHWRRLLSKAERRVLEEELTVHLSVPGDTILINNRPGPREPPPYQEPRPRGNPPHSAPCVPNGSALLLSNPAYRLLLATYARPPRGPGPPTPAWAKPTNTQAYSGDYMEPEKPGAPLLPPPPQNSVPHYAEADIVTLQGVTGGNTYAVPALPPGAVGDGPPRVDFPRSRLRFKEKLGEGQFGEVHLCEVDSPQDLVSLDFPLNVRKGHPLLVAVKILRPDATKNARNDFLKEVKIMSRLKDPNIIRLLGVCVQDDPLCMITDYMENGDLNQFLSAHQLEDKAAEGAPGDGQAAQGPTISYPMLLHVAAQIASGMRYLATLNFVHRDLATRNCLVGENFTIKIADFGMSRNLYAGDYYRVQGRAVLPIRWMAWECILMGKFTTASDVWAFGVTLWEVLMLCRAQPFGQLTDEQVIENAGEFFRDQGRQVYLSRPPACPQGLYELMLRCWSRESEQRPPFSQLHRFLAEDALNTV
# Chain of JAK1 (P23458 whole entry): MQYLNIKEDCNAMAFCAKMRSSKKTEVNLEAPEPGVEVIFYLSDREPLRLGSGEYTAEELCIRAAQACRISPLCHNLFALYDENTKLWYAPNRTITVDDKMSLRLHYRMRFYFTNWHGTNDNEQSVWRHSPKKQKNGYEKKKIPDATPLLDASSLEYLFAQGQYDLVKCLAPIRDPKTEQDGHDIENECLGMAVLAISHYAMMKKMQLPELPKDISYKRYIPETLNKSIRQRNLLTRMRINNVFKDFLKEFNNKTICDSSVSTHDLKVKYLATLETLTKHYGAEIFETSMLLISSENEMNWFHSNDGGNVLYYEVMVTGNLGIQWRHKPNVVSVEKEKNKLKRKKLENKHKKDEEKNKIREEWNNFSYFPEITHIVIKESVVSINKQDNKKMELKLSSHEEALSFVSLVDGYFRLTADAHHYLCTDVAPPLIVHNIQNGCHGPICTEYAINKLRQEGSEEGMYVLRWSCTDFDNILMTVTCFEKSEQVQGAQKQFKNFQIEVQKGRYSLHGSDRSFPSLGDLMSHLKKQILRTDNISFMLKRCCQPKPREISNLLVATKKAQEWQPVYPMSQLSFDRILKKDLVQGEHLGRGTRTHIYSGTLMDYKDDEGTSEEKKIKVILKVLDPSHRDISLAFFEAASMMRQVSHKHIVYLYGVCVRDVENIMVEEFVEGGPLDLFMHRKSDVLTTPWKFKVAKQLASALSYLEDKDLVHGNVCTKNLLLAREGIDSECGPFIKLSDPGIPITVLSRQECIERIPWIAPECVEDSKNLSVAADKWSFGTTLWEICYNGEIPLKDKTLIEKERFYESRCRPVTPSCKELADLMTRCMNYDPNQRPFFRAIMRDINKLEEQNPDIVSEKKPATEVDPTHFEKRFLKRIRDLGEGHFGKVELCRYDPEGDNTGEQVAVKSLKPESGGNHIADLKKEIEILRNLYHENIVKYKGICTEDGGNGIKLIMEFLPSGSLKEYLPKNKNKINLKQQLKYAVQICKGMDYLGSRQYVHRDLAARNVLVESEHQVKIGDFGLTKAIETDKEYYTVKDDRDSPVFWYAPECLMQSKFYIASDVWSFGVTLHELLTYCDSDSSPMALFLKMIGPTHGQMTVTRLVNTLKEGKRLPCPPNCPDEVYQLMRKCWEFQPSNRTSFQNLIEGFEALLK
# Chain of PNCK (Q6P2M8 whole entry): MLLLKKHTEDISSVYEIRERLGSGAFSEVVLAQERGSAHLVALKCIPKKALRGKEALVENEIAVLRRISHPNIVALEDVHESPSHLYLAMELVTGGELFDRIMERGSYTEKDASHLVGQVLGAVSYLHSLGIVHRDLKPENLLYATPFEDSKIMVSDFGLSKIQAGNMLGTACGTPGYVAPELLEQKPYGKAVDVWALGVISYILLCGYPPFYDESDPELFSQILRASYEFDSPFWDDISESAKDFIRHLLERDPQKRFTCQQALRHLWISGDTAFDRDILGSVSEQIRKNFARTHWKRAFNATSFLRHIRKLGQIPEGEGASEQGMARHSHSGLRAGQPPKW
# Chain of MAPK9 (P45984 whole entry): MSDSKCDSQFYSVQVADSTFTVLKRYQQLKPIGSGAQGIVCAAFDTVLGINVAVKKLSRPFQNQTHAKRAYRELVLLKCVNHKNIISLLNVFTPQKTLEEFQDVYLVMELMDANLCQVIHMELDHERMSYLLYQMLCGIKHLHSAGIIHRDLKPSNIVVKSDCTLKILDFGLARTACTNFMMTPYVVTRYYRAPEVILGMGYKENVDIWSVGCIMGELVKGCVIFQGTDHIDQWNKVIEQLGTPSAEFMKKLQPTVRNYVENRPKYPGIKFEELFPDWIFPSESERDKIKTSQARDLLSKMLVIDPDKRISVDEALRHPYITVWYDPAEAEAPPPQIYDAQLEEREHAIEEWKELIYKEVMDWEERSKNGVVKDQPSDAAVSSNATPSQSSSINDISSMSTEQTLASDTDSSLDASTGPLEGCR
# Chain of PIK3CA (P42336 whole entry): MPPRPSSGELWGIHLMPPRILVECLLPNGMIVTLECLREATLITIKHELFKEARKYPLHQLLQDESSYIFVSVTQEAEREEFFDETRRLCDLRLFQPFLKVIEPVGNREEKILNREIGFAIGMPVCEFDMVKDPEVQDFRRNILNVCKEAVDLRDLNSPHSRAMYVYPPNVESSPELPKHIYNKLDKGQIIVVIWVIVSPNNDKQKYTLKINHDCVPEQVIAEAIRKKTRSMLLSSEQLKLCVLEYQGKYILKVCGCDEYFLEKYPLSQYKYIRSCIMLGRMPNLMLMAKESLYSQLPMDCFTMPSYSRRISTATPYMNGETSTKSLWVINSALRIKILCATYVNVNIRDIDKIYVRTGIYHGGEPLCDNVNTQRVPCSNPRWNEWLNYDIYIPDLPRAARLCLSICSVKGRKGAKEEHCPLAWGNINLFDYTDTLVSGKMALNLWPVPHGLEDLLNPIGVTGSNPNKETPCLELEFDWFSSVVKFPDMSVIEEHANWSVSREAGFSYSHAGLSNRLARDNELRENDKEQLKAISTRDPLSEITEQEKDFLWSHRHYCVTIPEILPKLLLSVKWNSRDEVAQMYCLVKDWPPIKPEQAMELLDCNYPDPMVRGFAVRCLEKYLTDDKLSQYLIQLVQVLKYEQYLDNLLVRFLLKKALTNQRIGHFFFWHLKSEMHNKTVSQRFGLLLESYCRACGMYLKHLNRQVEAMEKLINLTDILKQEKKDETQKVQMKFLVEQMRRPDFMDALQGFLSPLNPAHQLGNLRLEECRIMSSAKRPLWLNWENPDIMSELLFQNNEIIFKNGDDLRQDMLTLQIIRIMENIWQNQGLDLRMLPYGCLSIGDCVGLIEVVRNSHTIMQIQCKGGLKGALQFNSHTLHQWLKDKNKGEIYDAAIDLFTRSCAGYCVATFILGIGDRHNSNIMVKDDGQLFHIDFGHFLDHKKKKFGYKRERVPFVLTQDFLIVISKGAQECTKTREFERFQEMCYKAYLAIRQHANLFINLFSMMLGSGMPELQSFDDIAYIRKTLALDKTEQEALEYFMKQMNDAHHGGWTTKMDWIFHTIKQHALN
IC50 (MAPK9) [µM],IC50 (JAK1) [µM],IC50 (PIK3CA) [µM],IC50 (PNCK) [µM],IC50 (DDR1) [µM],Structure (SMILES)
> 20,> 20,> 20,> 20,> 20,"Cc1cnc(-c2cc(Cl)ccc2F)cc1-n1c(=O)n(CC(N)=O)c2ccccc21 [compound 15, THAI11]"
> 20,> 20,> 20,> 20,> 20,"Cc1ccc2c(c1)n(CC(N)=O)c(=O)n2-c1cc(-c2cc(Cl)ccc2F)ncc1C [compound 16, THAI14]"
